Laboratory results reported in publication PMC7433030 (Bioorganic & medicinal chemistry, 2020).

What was measured:
[1] = type: in vitro ADME; settings: mouse liver microsomes, without NADPH (data not shown)
[2] = In vivo PK study, single subcutaneous dose in CD2F1 mice; settings: male, CD2F1, mouse, sc, 200 mg/kg
[3] = tested on: G-CSF production; experiment: In vivo G-CSF stimulation assay; parameters: species or system mouse; settings: CD2F1 mice, 200 mg/Kg subcutaneously; for G-CSF production in mice after treatment: plasma G-CSF 8-48 h

Row | SMILES | degradation in the absence of NADPH [1] | Tmax [2] | Tmax at 24 h [2] | lag time before plasma G-CSF increase [3] | time of peak plasma G-CSF concentration [3] | G-CSF production in mice after treatment [3]
1 | CC(C)=CCC/C(C)=C/CC/C(C)=C/CC[C@]1(C)CCc2cc(O)cc(C)c2O1 [DT3, δ-tocotrienol] | no degradation was observed | ~1 h | 1 h | about 6 h | 24 h | significant G-CSF production
2 | [2H]C([2H])([2H])C(=CCC/C(C)=C/CC/C(C)=C/CC[C@]1(C)CCc2cc(O)cc(C)c2O1)C([2H])([2H])[2H] [d6-DT3, (R)-2-((3E,7E)-4,8-dimethyl-12-(methyl-d3)trideca-3,7,11-trien-1-yl-13,13,13-d3)-2,8-dimethylchroman-6-ol] | no degradation was observed | – | – | about 6 h | 24 h | significant G-CSF production
